Test results: US4638005A, “Monoquaternized pyrazinium compounds and their use as electron carriers in photosynthetic processes” (The Coca-Cola Company, priority 1983, dated 1987)

Molecular target: T1, nitrogenase (Azotobacter vinelandii, UniProt P00459)
T1 construct: the nitrogenase sample was prepared from a culture of Azotobacter vinelandii; endogenous in cells; host or cells: Azotobacter vinelandii culture; French press lysate, 10,000 x g supernatant (crude)
Experiment: Chloroplast-coupled reduction of acetylene to ethylene by nitrogenase (electron carrier bioassay of Benemann)
Format: biochemical
Conditions: Table I; acetylene reduction to ethylene
Method: The activity of the pyrazinium compounds as electron carriers in an illuminated photocouple process using isolated chloroplasts and the reductive enzyme catalyst nitrogenease has been determined using the bioassay of Benemann, et al., Proc. Natl. Acad. Sci. USA, 64, 1079(1969). In this method, the carrier activity is measured as a function of nitrogenase reduction of acetylene to ethylene, the rate of production of ethylene being the direct measurement.
(§1) For the bioassay, the nitrogenase sample was prepared from a culture of Azotobacter vinelandii grown to a cell density of about 1 g/l. The cells harvested by centrifugation were broken in a French press, cell debris spun off at 10,000 XG for 1 hr., and the supernatant containing 40 mg/ml protein was used in the bioassay experiments. […] chloroplasts from spinach leaves as described by Benemann were also used. The synthetic carriers were tested in aqueous solutions at concentrations of 2 mM, while the standard, clostridial ferredoxin, was used in 0.2 mM aqueous solution. The concentrations of carriers in the assay mixtures were chosen so as to guarantee carrier saturation conditions. Thus, the observed differences in rates of ethylene production from the substrate acetylene were assigned directly to variations in the efficiency of electron transfer from the illuminated chloroplast to the nitrogenase. The results obtained for acetylene reduction (nitrogen fixation) using the pyrazinium compounds of Examples 1 through 42 are summarized in Table I and are expressed as nmoles of ethylene produced per mg protein per minute.

T1 sequence (P00459 2-290 limits assumed): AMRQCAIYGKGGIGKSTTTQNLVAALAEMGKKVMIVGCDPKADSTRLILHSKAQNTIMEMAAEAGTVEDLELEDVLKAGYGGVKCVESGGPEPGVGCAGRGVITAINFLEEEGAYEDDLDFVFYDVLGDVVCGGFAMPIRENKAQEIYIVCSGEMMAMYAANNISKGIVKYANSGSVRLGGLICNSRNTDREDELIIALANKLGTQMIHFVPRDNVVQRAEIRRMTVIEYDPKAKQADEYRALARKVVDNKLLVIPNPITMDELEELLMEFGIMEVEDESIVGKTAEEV

Row | Compound | ACTIVITY RELATIVE TO FERREDOXIN (%)
1 | 1-Methyl-3(2)-hydroxymethyl-6(5)-methylpyrazinium iodide [Compound 500] | 22
2 | CC(O)c1c[n+](C)ccn1 (stereo not drawn) [Compound 200, 1-Methyl-3-(1-hydroxyelhyl)pyrazinium iodide] | 17
3 | C[n+]1ccnc(CCO)c1.[I-] [Compound 300, 1-Methyl-3-(2-hydroxyethyl)pyrazinium iodide] | 41
4 | Cc1c[n+](C)cc(CO)n1.[I-] [Compound 400, 1-Methyl-3-hydroxymethyl-5-methylpyrazinium iodide] | 26
5 | Cc1c[n+](CCCS(=O)(=O)[O-])ccn1 [Compound 600] | 64
6 | Cc1c[n+](CCCS(=O)(=O)[O-])c(C)cn1 [Compound 700, 1-(3-Sulfonylpropyl)-2,5-dimethylpyrazine] | 104
7 | O=C(O)CC[n+]1ccncc1.[Br-] [Compound 800, 1-(2-Carboxyethyl)pyrazinium bromide] | 50
8 | CCC(Cc1c[n+](C)ccn1)S(=O)(=O)[O-] (stereo not drawn) [Compound 1000] | 95
9 | CCCC(c1c[n+](C)ccn1)S(=O)(=O)[O-] (stereo not drawn) [Compound 1200] | 107

Same assay, conditions: Table I; illuminated spinach chloroplasts; synthetic carriers 2 mM, clostridial ferredoxin 0.2 mM

Row | Compound | ACTIVITY (nmoles C2 H4 /mg protein/min)
10 | 1-Methyl-3(2)-hydroxymethyl-6(5)-methylpyrazinium iodide [Compound 500] | 3.0 nmoles C2 H4 /mg protein/min
11 | CC(O)c1c[n+](C)ccn1 (stereo not drawn) [Compound 200, 1-Methyl-3-(1-hydroxyelhyl)pyrazinium iodide] | 2.3 nmoles C2 H4 /mg protein/min
12 | C[n+]1ccnc(CCO)c1.[I-] [Compound 300, 1-Methyl-3-(2-hydroxyethyl)pyrazinium iodide] | 5.5 nmoles C2 H4 /mg protein/min
13 | Cc1c[n+](C)cc(CO)n1.[I-] [Compound 400, 1-Methyl-3-hydroxymethyl-5-methylpyrazinium iodide] | 3.5 nmoles C2 H4 /mg protein/min
14 | Cc1c[n+](CCCS(=O)(=O)[O-])ccn1 [Compound 600] | 8.7 nmoles C2 H4 /mg protein/min
15 | Cc1c[n+](CCCS(=O)(=O)[O-])c(C)cn1 [Compound 700, 1-(3-Sulfonylpropyl)-2,5-dimethylpyrazine] | 14.0 nmoles C2 H4 /mg protein/min
16 | O=C(O)CC[n+]1ccncc1.[Br-] [Compound 800, 1-(2-Carboxyethyl)pyrazinium bromide] | 6.8 nmoles C2 H4 /mg protein/min
17 | CCC(Cc1c[n+](C)ccn1)S(=O)(=O)[O-] (stereo not drawn) [Compound 1000] | 12.8 nmoles C2 H4 /mg protein/min
18 | CCCC(c1c[n+](C)ccn1)S(=O)(=O)[O-] (stereo not drawn) [Compound 1200] | 14.5 nmoles C2 H4 /mg protein/min

Same assay, conditions: Table III ranking

Row | Compound | ETHYLENE FORMATION % Ferredoxin Activity [%]
19 | 1-Methyl-3(2)-hydroxymethyl-6(5)-methylpyrazinium iodide [Compound 500] | 22
20 | CC(O)c1c[n+](C)ccn1 (stereo not drawn) [Compound 200, 1-Methyl-3-(1-hydroxyelhyl)pyrazinium iodide] | 17
21 | C[n+]1ccnc(CCO)c1.[I-] [Compound 300, 1-Methyl-3-(2-hydroxyethyl)pyrazinium iodide] | 41
22 | Cc1c[n+](C)cc(CO)n1.[I-] [Compound 400, 1-Methyl-3-hydroxymethyl-5-methylpyrazinium iodide] | 26
23 | Cc1c[n+](CCCS(=O)(=O)[O-])ccn1 [Compound 600] | 64
24 | Cc1c[n+](CCCS(=O)(=O)[O-])c(C)cn1 [Compound 700, 1-(3-Sulfonylpropyl)-2,5-dimethylpyrazine] | 104
25 | O=C(O)CC[n+]1ccncc1.[Br-] [Compound 800, 1-(2-Carboxyethyl)pyrazinium bromide] | 50
26 | CCC(Cc1c[n+](C)ccn1)S(=O)(=O)[O-] (stereo not drawn) [Compound 1000] | 95
27 | CCCC(c1c[n+](C)ccn1)S(=O)(=O)[O-] (stereo not drawn) [Compound 1200] | 107

Same assay, conditions: Table IV; acetylene reduction

Row | Compound | % FERREDOXIN ACTIVITY [%]
28 | 1-Methyl-3(2)-hydroxymethyl-6(5)-methylpyrazinium iodide [Compound 500] | 22
29 | CC(O)c1c[n+](C)ccn1 (stereo not drawn) [Compound 200, 1-Methyl-3-(1-hydroxyelhyl)pyrazinium iodide] | 17
30 | C[n+]1ccnc(CCO)c1.[I-] [Compound 300, 1-Methyl-3-(2-hydroxyethyl)pyrazinium iodide] | 41
31 | Cc1c[n+](C)cc(CO)n1.[I-] [Compound 400, 1-Methyl-3-hydroxymethyl-5-methylpyrazinium iodide] | 26
32 | Cc1c[n+](CCCS(=O)(=O)[O-])ccn1 [Compound 600] | 64
33 | Cc1c[n+](CCCS(=O)(=O)[O-])c(C)cn1 [Compound 700, 1-(3-Sulfonylpropyl)-2,5-dimethylpyrazine] | 104
34 | O=C(O)CC[n+]1ccncc1.[Br-] [Compound 800, 1-(2-Carboxyethyl)pyrazinium bromide] | 50
35 | CCC(Cc1c[n+](C)ccn1)S(=O)(=O)[O-] (stereo not drawn) [Compound 1000] | 95
36 | CCCC(c1c[n+](C)ccn1)S(=O)(=O)[O-] (stereo not drawn) [Compound 1200] | 107

Molecular target: T1, nitrogenase
Experiment: Chloroplast-coupled evolution of hydrogen by nitrogenase in the absence of substrate
Format: biochemical
Conditions: Table II; hydrogen evolution
Method: as §1
It has been recognized for sometime the connection existing between hydrogen metabolism and nitrogen fixation. […] When nitrogenase was purified extensively, as mentioned above, it became apparent that in addition to nitrogen, nitrogenase also catalyzed the reduction of protons. The evolution of hydrogen is particularly active in the absence of the normal substrates for nitrogenase (nitrogen, acetylene, cyanide, azide, etc.), and is dependent upon a strong reductant and adenosine triphosphate hydrolysis. Since hydrogen evolution is not inhibited by CO, but reduction of nitrogen and other substrates is, the reduction of protons presumably occurs at a site other than the site of nitrogen reduction, H. C. Winter, et. al., Ann Rev. Biochem, 45, 409 (1976). Accordingly, with the same bioassay system and with exclusion of nitrogen, and acetylene, the activity of the pyrazinium compounds to act as carriers for production of hydrogen has been determined.
The results of this study, which are summarized in Table II, indicate that the pyrazinium salts that mediate the reduction of acetylene with electrons from the photoexcited chloroplast, are also mediating the reduction of protons by the nitrogenase.

Row | Compound | ACTIVITY RELATIVE TO FERREDOXIN (%)
37 | 1-Methyl-3(2)-hydroxymethyl-6(5)-methylpyrazinium iodide [Compound 500] | 46
38 | CC(O)c1c[n+](C)ccn1 (stereo not drawn) [Compound 200, 1-Methyl-3-(1-hydroxyelhyl)pyrazinium iodide] | 64
39 | C[n+]1ccnc(CCO)c1.[I-] [Compound 300, 1-Methyl-3-(2-hydroxyethyl)pyrazinium iodide] | 30
40 | Cc1c[n+](C)cc(CO)n1.[I-] [Compound 400, 1-Methyl-3-hydroxymethyl-5-methylpyrazinium iodide] | 74
41 | Cc1c[n+](CCCS(=O)(=O)[O-])ccn1 [Compound 600] | 106
42 | Cc1c[n+](CCCS(=O)(=O)[O-])c(C)cn1 [Compound 700, 1-(3-Sulfonylpropyl)-2,5-dimethylpyrazine] | 74
43 | O=C(O)CC[n+]1ccncc1.[Br-] [Compound 800, 1-(2-Carboxyethyl)pyrazinium bromide] | 28
44 | CCC(Cc1c[n+](C)ccn1)S(=O)(=O)[O-] (stereo not drawn) [Compound 1000] | 73
45 | CCCC(c1c[n+](C)ccn1)S(=O)(=O)[O-] (stereo not drawn) [Compound 1200] | 143

Same assay, conditions: Table II; hydrogen evolution, no nitrogen or acetylene; synthetic carriers 2 mM, ferredoxin 0.2 mM

Row | Compound | ACTIVITY (nmoles H2 /mg protein/min)
46 | 1-Methyl-3(2)-hydroxymethyl-6(5)-methylpyrazinium iodide [Compound 500] | 12.3
47 | CC(O)c1c[n+](C)ccn1 (stereo not drawn) [Compound 200, 1-Methyl-3-(1-hydroxyelhyl)pyrazinium iodide] | 17.2
48 | C[n+]1ccnc(CCO)c1.[I-] [Compound 300, 1-Methyl-3-(2-hydroxyethyl)pyrazinium iodide] | 8.1
49 | Cc1c[n+](C)cc(CO)n1.[I-] [Compound 400, 1-Methyl-3-hydroxymethyl-5-methylpyrazinium iodide] | 19.7
50 | Cc1c[n+](CCCS(=O)(=O)[O-])ccn1 [Compound 600] | 28.4
51 | Cc1c[n+](CCCS(=O)(=O)[O-])c(C)cn1 [Compound 700, 1-(3-Sulfonylpropyl)-2,5-dimethylpyrazine] | 19.7
52 | O=C(O)CC[n+]1ccncc1.[Br-] [Compound 800, 1-(2-Carboxyethyl)pyrazinium bromide] | 7.5
53 | CCC(Cc1c[n+](C)ccn1)S(=O)(=O)[O-] (stereo not drawn) [Compound 1000] | 19.5
54 | CCCC(c1c[n+](C)ccn1)S(=O)(=O)[O-] (stereo not drawn) [Compound 1200] | 38.1

System: not listed separately
Experiment: Polarographic half-wave potential (first wave reduction)
Format: physicochemical
Conditions: 0.1 M phosphate buffer pH 7.55, 25° C.
Excerpt: Sci., 65, 1471(1976). Therefore, it was of interest to measure polarographically the half-wave potentials of the several pyrazinium salts under consideration, to determine the possible effect of structure upon their redox potentials.

Row | Compound | E1/2 vs. SCE (mV)
55 | 1-Methyl-3(2)-hydroxymethyl-6(5)-methylpyrazinium iodide [Compound 500] | -751
56 | CC(O)c1c[n+](C)ccn1 (stereo not drawn) [Compound 200, 1-Methyl-3-(1-hydroxyelhyl)pyrazinium iodide] | -699
57 | C[n+]1ccnc(CCO)c1.[I-] [Compound 300, 1-Methyl-3-(2-hydroxyethyl)pyrazinium iodide] | -683
58 | Cc1c[n+](C)cc(CO)n1.[I-] [Compound 400, 1-Methyl-3-hydroxymethyl-5-methylpyrazinium iodide] | -738
59 | Cc1c[n+](CCCS(=O)(=O)[O-])ccn1 [Compound 600] | -651
60 | Cc1c[n+](CCCS(=O)(=O)[O-])c(C)cn1 [Compound 700, 1-(3-Sulfonylpropyl)-2,5-dimethylpyrazine] | -700
61 | O=C(O)CC[n+]1ccncc1.[Br-] [Compound 800, 1-(2-Carboxyethyl)pyrazinium bromide] | -625
62 | CCC(Cc1c[n+](C)ccn1)S(=O)(=O)[O-] (stereo not drawn) [Compound 1000] | -710
63 | CCCC(c1c[n+](C)ccn1)S(=O)(=O)[O-] (stereo not drawn) [Compound 1200] | -699
